Reference: the NIST ThermoML archive (doi:10.1016/j.jct.2006.10.008)
Numbers after ± are expanded uncertainties.

Assays:
[1] = excess molar enthalpy (molar enthalpy of mixing); xn = mol fraction of the nth substance listed; settings: 298.15 K, 101 kPa, Liquid, Calvet calorimetry
[2] = xn = mol fraction of the nth substance listed; settings: 298.15 K, 101 kPa, Liquid

Q: What does the source list for `ClCCCCCCCl` [1,6-dichlorohexane] + CCCCOC=O?
A: excess molar enthalpy ([1]; x2 = 0.095): 0.0251 ± 0.001 kJ/mol; excess molar enthalpy ([1]; x2 = 0.1874): 0.0412 ± 0.0011 kJ/mol; excess molar enthalpy ([1]; x2 = 0.2768): 0.0425 ± 0.0011 kJ/mol; excess molar enthalpy ([1]; x2 = 0.3583): 0.0302 ± 0.001 kJ/mol; excess molar enthalpy ([1]; x2 = 0.4321): 0.0055 ± 0.0008 kJ/mol; excess molar enthalpy ([1]; x2 = 0.4949): -0.0291 ± 0.001 kJ/mol; excess molar enthalpy ([1]; x2 = 0.5195): -0.0379 ± 0.0011 kJ/mol; excess molar enthalpy ([1]; x2 = 0.5526): -0.0541 ± 0.0012 kJ/mol; excess molar enthalpy ([1]; x2 = 0.566): -0.0588 ± 0.0012 kJ/mol; excess molar enthalpy ([1]; x2 = 0.616): -0.0777 ± 0.0014 kJ/mol; excess molar enthalpy ([1]; x2 = 0.6674): -0.0869 ± 0.0015 kJ/mol; excess molar enthalpy ([1]; x2 = 0.7246): -0.0856 ± 0.0014 kJ/mol; excess molar enthalpy ([1]; x2 = 0.7832): -0.0764 ± 0.0014 kJ/mol; excess molar enthalpy ([1]; x2 = 0.8346): -0.0657 ± 0.0013 kJ/mol; excess molar enthalpy ([1]; x2 = 0.892): -0.0428 ± 0.0011 kJ/mol; excess molar enthalpy ([1]; x2 = 0.9474): -0.0247 ± 0.001 kJ/mol; mass density ([2]; x2 = 0.074): 1053.56 ± 0.43 kg/m3; mass density ([2]; x2 = 0.1444): 1043.66 ± 0.41 kg/m3; mass density ([2]; x2 = 0.2217): 1032.43 ± 0.39 kg/m3; mass density ([2]; x2 = 0.2795): 1023.76 ± 0.37 kg/m3; mass density ([2]; x2 = 0.3441): 1013.82 ± 0.35 kg/m3; mass density ([2]; x2 = 0.4081): 1003.67 ± 0.33 kg/m3; mass density ([2]; x2 = 0.5278): 983.77 ± 0.34 kg/m3; mass density ([2]; x2 = 0.586): 973.68 ± 0.35 kg/m3; mass density ([2]; x2 = 0.641): 963.84 ± 0.37 kg/m3; mass density ([2]; x2 = 0.702): 952.63 ± 0.38 kg/m3; mass density ([2]; x2 = 0.7544): 942.71 ± 0.39 kg/m3; mass density ([2]; x2 = 0.856): 922.68 ± 0.41 kg/m3; mass density ([2]; x2 = 0.9056): 912.53 ± 0.43 kg/m3; mass density ([2]; x2 = 0.9528): 902.59 ± 0.44 kg/m3

Q: What does the source list for `ClCCCCCCl` [1,5-dichloropentane] + CCCOC=O?
A: excess molar enthalpy ([1]; x2 = 0.0792): 0.0571 ± 0.0012 kJ/mol; excess molar enthalpy ([1]; x2 = 0.1664): 0.0915 ± 0.0015 kJ/mol; excess molar enthalpy ([1]; x2 = 0.2538): 0.116 ± 0.0017 kJ/mol; excess molar enthalpy ([1]; x2 = 0.3307): 0.121 ± 0.0017 kJ/mol; excess molar enthalpy ([1]; x2 = 0.4063): 0.118 ± 0.0017 kJ/mol; excess molar enthalpy ([1]; x2 = 0.4789): 0.105 ± 0.0016 kJ/mol; excess molar enthalpy ([1]; x2 = 0.5175): 0.0922 ± 0.0015 kJ/mol; excess molar enthalpy ([1]; x2 = 0.5645): 0.0738 ± 0.0014 kJ/mol; excess molar enthalpy ([1]; x2 = 0.6145): 0.0594 ± 0.0012 kJ/mol; excess molar enthalpy ([1]; x2 = 0.6665): 0.0391 ± 0.0011 kJ/mol; excess molar enthalpy ([1]; x2 = 0.7229): 0.02 ± 0.0009 kJ/mol; excess molar enthalpy ([1]; x2 = 0.7817): 0.0067 ± 0.0008 kJ/mol; excess molar enthalpy ([1]; x2 = 0.8389): -0.0104 ± 0.0009 kJ/mol; excess molar enthalpy ([1]; x2 = 0.8948): -0.0212 ± 0.0009 kJ/mol; excess molar enthalpy ([1]; x2 = 0.9503): -0.012 ± 0.0009 kJ/mol; mass density ([2]; x2 = 0.0753): 1084.21 ± 0.49 kg/m3; mass density ([2]; x2 = 0.1495): 1073.17 ± 0.47 kg/m3; mass density ([2]; x2 = 0.2212): 1062.01 ± 0.44 kg/m3; mass density ([2]; x2 = 0.2884): 1051.29 ± 0.42 kg/m3; mass density ([2]; x2 = 0.3607): 1039.4 ± 0.4 kg/m3; mass density ([2]; x2 = 0.4174): 1029.7 ± 0.38 kg/m3; mass density ([2]; x2 = 0.4802): 1018.63 ± 0.36 kg/m3; mass density ([2]; x2 = 0.5386): 1008.06 ± 0.34 kg/m3; mass density ([2]; x2 = 0.6024): 996.11 ± 0.33 kg/m3; mass density ([2]; x2 = 0.6568): 985.57 ± 0.34 kg/m3; mass density ([2]; x2 = 0.7118): 974.66 ± 0.35 kg/m3; mass density ([2]; x2 = 0.8133): 953.48 ± 0.38 kg/m3; mass density ([2]; x2 = 0.8586): 943.64 ± 0.39 kg/m3; mass density ([2]; x2 = 0.9056): 933.22 ± 0.4 kg/m3; mass density ([2]; x2 = 0.9555): 921.68 ± 0.42 kg/m3

Q: What does the source list for `CCCCCOC=O` [pentyl methanoate] + ClCCCl?
A: excess molar enthalpy ([1]; x1 = 0.0406): -0.0343 ± 0.0011 kJ/mol; excess molar enthalpy ([1]; x1 = 0.0934): -0.0828 ± 0.0015 kJ/mol; excess molar enthalpy ([1]; x1 = 0.1501): -0.141 ± 0.0019 kJ/mol; excess molar enthalpy ([1]; x1 = 0.2054): -0.192 ± 0.0023 kJ/mol; excess molar enthalpy ([1]; x1 = 0.2613): -0.244 ± 0.0027 kJ/mol; excess molar enthalpy ([1]; x1 = 0.3157): -0.282 ± 0.003 kJ/mol; excess molar enthalpy ([1]; x1 = 0.3653): -0.32 ± 0.0033 kJ/mol; excess molar enthalpy ([1]; x1 = 0.4153): -0.3507 ± 0.0035 kJ/mol; excess molar enthalpy ([1]; x1 = 0.4604): -0.3718 ± 0.0037 kJ/mol; excess molar enthalpy ([1]; x1 = 0.5014): -0.3831 ± 0.0037 kJ/mol; excess molar enthalpy ([1]; x1 = 0.5593): -0.387 ± 0.0038 kJ/mol; excess molar enthalpy ([1]; x1 = 0.6338): -0.3677 ± 0.0036 kJ/mol; excess molar enthalpy ([1]; x1 = 0.7235): -0.314 ± 0.0032 kJ/mol; excess molar enthalpy ([1]; x1 = 0.8158): -0.23 ± 0.0026 kJ/mol; excess molar enthalpy ([1]; x1 = 0.9141): -0.126 ± 0.0018 kJ/mol; mass density ([2]; x1 = 0.0396): 1221.77 ± 0.77 kg/m3; mass density ([2]; x1 = 0.0779): 1199.93 ± 0.72 kg/m3; mass density ([2]; x1 = 0.1181): 1178.31 ± 0.68 kg/m3; mass density ([2]; x1 = 0.1601): 1156.97 ± 0.64 kg/m3; mass density ([2]; x1 = 0.2047): 1135.53 ± 0.59 kg/m3; mass density ([2]; x1 = 0.2505): 1114.67 ± 0.55 kg/m3; mass density ([2]; x1 = 0.3008): 1093.1 ± 0.51 kg/m3; mass density ([2]; x1 = 0.3529): 1072.02 ± 0.47 kg/m3; mass density ([2]; x1 = 0.4074): 1051.23 ± 0.42 kg/m3; mass density ([2]; x1 = 0.4655): 1030.4 ± 0.38 kg/m3; mass density ([2]; x1 = 0.5288): 1009.11 ± 0.34 kg/m3; mass density ([2]; x1 = 0.5948): 988.32 ± 0.34 kg/m3; mass density ([2]; x1 = 0.6639): 967.94 ± 0.36 kg/m3; mass density ([2]; x1 = 0.7399): 946.95 ± 0.39 kg/m3; mass density ([2]; x1 = 0.8201): 926.19 ± 0.41 kg/m3; mass density ([2]; x1 = 0.906): 905.54 ± 0.44 kg/m3

Q: For `ClCCCCl` [1,3-dichloropropane] + COC=O, which excess molar enthalpy ([1]; x2 = 0.0855) is on record?
A: Its excess molar enthalpy is 0.0884 ± 0.0015 kJ/mol.

Q: And the excess molar enthalpy ([1]; x2 = 0.2024)?
A: Its excess molar enthalpy is 0.206 ± 0.0024 kJ/mol.

Q: What about the excess molar enthalpy ([1]; x2 = 0.3078) of the same compound?
A: Its excess molar enthalpy is 0.282 ± 0.003 kJ/mol.

Q: What about the excess molar enthalpy ([1]; x2 = 0.4178) of the same compound?
A: The excess molar enthalpy was 0.336 ± 0.0034 kJ/mol.

Q: What about the excess molar enthalpy ([1]; x2 = 0.4624) of the same compound?
A: Its excess molar enthalpy is 0.3446 ± 0.0034 kJ/mol.

Q: What about the excess molar enthalpy ([1]; x2 = 0.4877) of the same compound?
A: Its excess molar enthalpy is 0.348 ± 0.0035 kJ/mol.

Q: And the excess molar enthalpy ([1]; x2 = 0.5024)?
A: The excess molar enthalpy was 0.3503 ± 0.0035 kJ/mol.

Q: What about the excess molar enthalpy ([1]; x2 = 0.5476) of the same compound?
A: Its excess molar enthalpy is 0.3527 ± 0.0035 kJ/mol.

Q: What about the excess molar enthalpy ([1]; x2 = 0.5583) of the same compound?
A: Its excess molar enthalpy is 0.3432 ± 0.0034 kJ/mol.

Q: And the excess molar enthalpy ([1]; x2 = 0.5978)?
A: Its excess molar enthalpy is 0.338 ± 0.0034 kJ/mol.

Q: And the excess molar enthalpy ([1]; x2 = 0.6499)?
A: The excess molar enthalpy was 0.326 ± 0.0033 kJ/mol.

Q: And the excess molar enthalpy ([1]; x2 = 0.7069)?
A: Its excess molar enthalpy is 0.309 ± 0.0032 kJ/mol.

Q: What about the excess molar enthalpy ([1]; x2 = 0.7674) of the same compound?
A: Its excess molar enthalpy is 0.284 ± 0.003 kJ/mol.

Q: What about the excess molar enthalpy ([1]; x2 = 0.8297) of the same compound?
A: Its excess molar enthalpy is 0.245 ± 0.0027 kJ/mol.

Q: And the excess molar enthalpy ([1]; x2 = 0.893)?
A: Its excess molar enthalpy is 0.188 ± 0.0023 kJ/mol.

Q: And the excess molar enthalpy ([1]; x2 = 0.9533)?
A: The excess molar enthalpy was 0.103 ± 0.0017 kJ/mol.

Q: And the mass density ([2]; x2 = 0.0849)?
A: Its mass density is 1165.85 ± 0.65 kg/m3.

Q: And the mass density ([2]; x2 = 0.165)?
A: Its mass density is 1152.81 ± 0.63 kg/m3.

Q: And the mass density ([2]; x2 = 0.244)?
A: The mass density was 1139.5 ± 0.6 kg/m3.

Q: What about the mass density ([2]; x2 = 0.3177) of the same compound?
A: Its mass density is 1126.33 ± 0.57 kg/m3.

Q: And the mass density ([2]; x2 = 0.386)?
A: The mass density was 1113.56 ± 0.55 kg/m3.

Q: And the mass density ([2]; x2 = 0.4563)?
A: Its mass density is 1099.9 ± 0.52 kg/m3.

Q: And the mass density ([2]; x2 = 0.5138)?
A: Its mass density is 1088.31 ± 0.5 kg/m3.

Q: And the mass density ([2]; x2 = 0.5789)?
A: The mass density was 1074.43 ± 0.47 kg/m3.

Q: And the mass density ([2]; x2 = 0.635)?
A: The mass density was 1062.04 ± 0.45 kg/m3.

Q: What about the mass density ([2]; x2 = 0.688) of the same compound?
A: Its mass density is 1049.82 ± 0.42 kg/m3.

Q: And the mass density ([2]; x2 = 0.7384)?
A: Its mass density is 1037.54 ± 0.4 kg/m3.

Q: And the mass density ([2]; x2 = 0.7876)?
A: Its mass density is 1025.35 ± 0.37 kg/m3.

Q: And the mass density ([2]; x2 = 0.8341)?
A: The mass density was 1013.43 ± 0.35 kg/m3.

Q: And the mass density ([2]; x2 = 0.878)?
A: Its mass density is 1001.59 ± 0.33 kg/m3.

Q: What about the mass density ([2]; x2 = 0.9206) of the same compound?
A: The mass density was 989.81 ± 0.34 kg/m3.

Q: And the mass density ([2]; x2 = 0.9607)?
A: The mass density was 978.24 ± 0.35 kg/m3.
